According to PubChem BioAssay (NCI):
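Following 48 hours of exposure in 96-well plates, responses at five concentrations were used to interpolate endpoints linearly. GI50 marks 50% less growth. TGI marks complete inhibition of growth.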

Columns and labels:
Test in all cases: NCI-60 cell line screen, 48 h
HOP-62 NSCLC = tested on: HOP-62 NSCLC
PC-3 prostate = tested on: PC-3 prostate
M14 melanoma = tested on: M14 melanoma
MDA-MB-435 = tested on: MDA-MB-435
HT29 colon = tested on: HT29 colon
NCI-H522 lung = tested on: NCI-H522 lung
NCI-H460 lung = tested on: NCI-H460 lung
SK-MEL-2 melanoma = tested on: SK-MEL-2 melanoma
HL-60(TB) leukemia = tested on: HL-60(TB) leukemia
HCT-15 colon = tested on: HCT-15 colon
MCF7 breast = tested on: MCF7 breast
U251 CNS = tested on: U251 CNS
OVCAR-8 ovarian = tested on: OVCAR-8 ovarian
786-0 renal = tested on: 786-0 renal
IGROV1 ovarian = tested on: IGROV1 ovarian
NCI-H226 lung = tested on: NCI-H226 lung
ACHN renal = tested on: ACHN renal
UACC-257 melanoma = tested on: UACC-257 melanoma
SR leukemia = tested on: SR leukemia
TK-10 renal = tested on: TK-10 renal
UACC-62 melanoma = tested on: UACC-62 melanoma
HCC-2998 colon = tested on: HCC-2998 colon
NCI/ADR-RES ovarian = tested on: NCI/ADR-RES ovarian
HCT-116 colon = tested on: HCT-116 colon
A498 renal = tested on: A498 renal
SF-268 CNS = tested on: SF-268 CNS
RXF 393 renal = tested on: RXF 393 renal
SW-620 colon = tested on: SW-620 colon
MDA-MB-231 breast = tested on: MDA-MB-231 breast
KM12 colon = tested on: KM12 colon
A549 NSCLC = tested on: A549 NSCLC
SNB-75 CNS = tested on: SNB-75 CNS
SK-MEL-28 melanoma = tested on: SK-MEL-28 melanoma
COLO 205 colon = tested on: COLO 205 colon
SK-MEL-5 melanoma = tested on: SK-MEL-5 melanoma
MALME-3M melanoma = tested on: MALME-3M melanoma
CCRF-CEM leukemia = tested on: CCRF-CEM leukemia
SK-OV-3 ovarian = tested on: SK-OV-3 ovarian
SN12C renal = tested on: SN12C renal
HOP-92 NSCLC = tested on: HOP-92 NSCLC
LOX IMVI melanoma = tested on: LOX IMVI melanoma
SF-539 CNS = tested on: SF-539 CNS
OVCAR-4 ovarian = tested on: OVCAR-4 ovarian
DU-145 prostate = tested on: DU-145 prostate
HS 578T breast = tested on: HS 578T breast
CAKI-1 renal = tested on: CAKI-1 renal
UO-31 renal = tested on: UO-31 renal
RPMI-8226 leukemia = tested on: RPMI-8226 leukemia
T-47D breast = tested on: T-47D breast
SF-295 CNS = tested on: SF-295 CNS
K-562 leukemia = tested on: K-562 leukemia
EKVX NSCLC = tested on: EKVX NSCLC
SNB-19 CNS = tested on: SNB-19 CNS
BT-549 breast = tested on: BT-549 breast
OVCAR-5 ovarian = tested on: OVCAR-5 ovarian
MOLT-4 leukemia = tested on: MOLT-4 leukemia

## O=C1C(N2CCN(c3ccccc3)CC2)=C(Cl)C(=O)c2ncccc21
HOP-62 NSCLC
  GI50: 17.3 µM
  TGI: 31.4 µM
PC-3 prostate
  GI50: 9.22 µM
  TGI: 23.1 µM
M14 melanoma
  GI50: 3.92 µM
  TGI: 14.7 µM
MDA-MB-435
  GI50: 1.77 µM
  TGI: 3.29 µM
HT29 colon
  GI50: 12 µM
  TGI: 27.3 µM
NCI-H522 lung
  GI50: 1.73 µM
  TGI: 3.55 µM
NCI-H460 lung
  GI50: 6.73 µM
  TGI: 22.4 µM
SK-MEL-2 melanoma
  GI50: 11.2 µM
  TGI: 23.6 µM
HL-60(TB) leukemia
  GI50: 1.36 µM
  TGI: 3.94 µM
HCT-15 colon
  GI50: 2.08 µM
  TGI: 6.22 µM
MCF7 breast
  GI50: 1.65 µM
  TGI: 3.6 µM
U251 CNS
  GI50: 10.3 µM
  TGI: 22.7 µM
OVCAR-8 ovarian
  GI50: 4.72 µM
  TGI: 17.6 µM
786-0 renal
  GI50: 6.43 µM
  TGI: 18.8 µM
IGROV1 ovarian
  GI50: 3.48 µM
  TGI: 12.3 µM
NCI-H226 lung
  GI50: 14.3 µM
  TGI: 31.9 µM
ACHN renal
  GI50: 2.21 µM
  TGI: 5.8 µM
UACC-257 melanoma
  GI50: 2.21 µM
  TGI: 6.22 µM
SR leukemia
  GI50: 1.89 µM
  TGI: 6.42 µM
TK-10 renal
  GI50: 12.4 µM
  TGI: 25.5 µM
UACC-62 melanoma
  GI50: 3.43 µM
  TGI: 12.4 µM
HCC-2998 colon
  GI50: 12 µM
  TGI: 24.9 µM
NCI/ADR-RES ovarian
  GI50: 4.33 µM
  TGI: 20.7 µM
HCT-116 colon
  GI50: 1.73 µM
  TGI: 3.11 µM
A498 renal
  GI50: 13.5 µM
  TGI: 34 µM
SF-268 CNS
  GI50: 15.2 µM
  TGI: 29.6 µM
RXF 393 renal
  GI50: 1.87 µM
  TGI: 3.43 µM
SW-620 colon
  GI50: 1.67 µM
  TGI: 3.89 µM
MDA-MB-231 breast
  GI50: 1.68 µM
  TGI: 3.21 µM
KM12 colon
  GI50: 20.7 µM
  TGI: 43.6 µM
A549 NSCLC
  GI50: 16.5 µM
  TGI: 32.6 µM
SNB-75 CNS
  GI50: 17.5 µM
  TGI: 38 µM
SK-MEL-28 melanoma
  GI50: 3.31 µM
  TGI: 10.3 µM
COLO 205 colon
  GI50: 4.53 µM
  TGI: 17.1 µM
SK-MEL-5 melanoma
  GI50: 13.1 µM
  TGI: 25.7 µM
MALME-3M melanoma
  GI50: 1.95 µM
  TGI: 4.25 µM
CCRF-CEM leukemia
  GI50: 2.33 µM
  TGI: 6.65 µM
SK-OV-3 ovarian
  GI50: 13.8 µM
  TGI: 29.9 µM
SN12C renal
  GI50: 4.97 µM
  TGI: 17.8 µM
HOP-92 NSCLC
  GI50: 1.49 µM
  TGI: 2.93 µM
LOX IMVI melanoma
  GI50: 1.59 µM
  TGI: 3.07 µM
SF-539 CNS
  GI50: 6.96 µM
  TGI: 20 µM
OVCAR-4 ovarian
  GI50: 1.79 µM
  TGI: 3.44 µM
DU-145 prostate
  GI50: 11.3 µM
  TGI: 23.6 µM
HS 578T breast
  GI50: 13.6 µM
  TGI: 47.4 µM
CAKI-1 renal
  GI50: 5.5 µM
  TGI: 18.2 µM
UO-31 renal
  GI50: 1.91 µM
  TGI: 4.3 µM
RPMI-8226 leukemia
  GI50: 2.1 µM
  TGI: 5.37 µM
T-47D breast
  GI50: 1.76 µM
  TGI: 3.95 µM
SF-295 CNS
  GI50: 14.2 µM
  TGI: 27.3 µM
K-562 leukemia
  GI50: 2.04 µM
  TGI: 5.51 µM
EKVX NSCLC
  GI50: 1.73 µM
  TGI: 3.38 µM
SNB-19 CNS
  GI50: 16.1 µM
  TGI: 30.6 µM
BT-549 breast
  GI50: 10.2 µM
  TGI: 21.8 µM
OVCAR-5 ovarian
  GI50: 16.6 µM
  TGI: 32 µM
MOLT-4 leukemia
  GI50: 1.97 µM
  TGI: 5.38 µM
